Data from patent publication US12447171B2 (CELGENE QUANTICEL RESEARCH, INC., priority 2019, dated 2025).
Peptide text beside a SMILES is read from it. * marks the point of attachment. Cbz = O=C(OCc1ccccc1)*; CH2F = FC*

Tests used:
BaF-FLT3(WT) = assay: Cell viability assay (Cell Titer-Glo), BaF3 cells expressing FLT3; type: cell-based; conditions: Mus musculus
BaF-FLT3-ITD = assay: as above; type: cell-based; conditions: Mus musculus
MOLM-13 xenograft model = assay: Disseminated MOLM-13 xenograft survival study; type: in vivo, mice; conditions: MOLM-13, NOD/SCID mice; single agent PO qd×21: midostaurin 100 mg/kg, gilteritinib 4 mg/kg, venetoclax 100 mg/kg; vehicle=19 days
Procedure: (§1) LEED models oral administration of AZA, while HELD models intravenous or subcutaneous administration of AZA.
The animals were fed ad libitum water (reverse osmosis, 1 ppm Cl), and NIH 31 Modified and Irradiated Lab Diet® consisting of 18.0% crude protein, 5.0% crude fat, and 5.0% crude fiber. The mice were housed on irradiated Enrich-o'cobs™ Laboratory Animal Bedding in static microisolators on a 12-hour light cycle at 20-22° C. (68-72° F.) and 40-60% humidity.
(§2) On each day of dosing, an appropriate amount of gilteritinib was dissolved in 0.5% methylcellulose in DI water to yield a dosing solution at 0.4 mg/mL. Each week, an appropriate amount of venetoclax was dissolved in 10% ethanol:30% PEG400:60% phosal 50 propylene glycol to yield a dosing solution at 10 mg/mL. […] Each test mouse received 5×10^6 MOLM-13 cells or 10^7 MV4-11 cells (0.2 mL cell suspension) by tail vein injection. Dosing was initiated three days after tumor cell inoculation, which was designated as Day 1 of the study. NOD/SCID mice (n=9-12/group) were randomized according to body weight and dosed. […] Vehicle was administered both IP and PO. The dosing volume for all treatments was 10 mL/kg, scaled to the weight of each individual animal.
(§3) Animals were monitored individually for an endpoint of moribundity due to progression of the leukemia. Full hind limb paralysis, severe ocular proptosis, or moribundity was considered sufficient for euthanasia due to tumor progression. Moribund animals were defined as sick animals unable to reach food and water. These deaths were classified as death on survival study. The time to endpoint (TTE), in days, was recorded for each mouse that died of its disease or was euthanized due to extensive tumor progression. […] An animal classified as having died from treatment-related (TR) causes was assigned a TTE value equal to the day of death. An animal classified as having died from non-treatment-related (NTR) causes, or used for sampling before endpoint, was excluded from TTE calculations and all further analyses. The median TTE value was calculated for each group. The median TTE of treated mice was expressed as a percentage of the median TTE of the control mice (% T/C), and the increase in life span (ILS) was calculated as: ILS=% T/C−100%, where T=median TTE treated, and C=median TTE control. Thus, if T=C, ILS=0%.
Animals were weighed daily on Days 1-5, then twice per week until the completion of the study. […] Individual body weight loss was monitored as per protocol and any animal that exceeded the limits for acceptable body weight loss was euthanized. Group mean body weight loss also was monitored as per protocol. Dosing was suspended in any group that exceeded the limits for acceptable mean body weight loss. If mean body weight recovered, then dosing may be resumed in that group, but at a lower dosage or less frequent dosing schedule. Acceptable toxicity for the maximum tolerated dose was defined as a group mean body-weight loss of less than 20% during the study and not more than one TR death among ten treated animals. […] A death was classified as NTR if there was no evidence that death was related to treatment side effects or tumor progression. Non-treatment-related deaths may be further characterized based on cause of death. A death may be classified as NTRa if it resulted from an accident or human error. A death may be classified as NTRu if the cause of death is unknown and there is no available evidence of death related to treatment side effects, metastasis, accident or human error, although death due to these etiologies cannot be excluded. Survival was analyzed by the Kaplan-Meier method, based on TTE values. The logrank (Mantel-Cox) and Gehan-Breslow-Wilcoxon tests determined the significance of the difference between the overall survival experiences (survival curves) of two groups, based on TTE values.
These experiments were repeated with a second FLT3-ITD cell line, MOLM-13.

BaF-FLT3(D835Y) = assay: Cell viability assay (Cell Titer-Glo), BaF3 cells expressing FLT3; type: cell-based; conditions: Mus musculus
[1] = tested on: engineered BaF3 cell lines expressing either wild-type FLT3, FLT3-ITD or FLT3 (D835Y); assay: Cell viability and synergy, panel of engineered BaF3 cell lines; type: cell-based; conditions: Mus musculus, FIG. 10A, read-out: EC50 (resistant to venetoclax)
MV4-11 xenograft models = assay: Disseminated MV4-11 xenograft survival study; type: in vivo; conditions: MV4-11, NCG mice; single agent PO qd×21: venetoclax 100 mg/kg, midostaurin 100 mg/kg; vehicle=29.5
Procedure: as §1
as §2, with “NOD/SCID mice (n=9-12/group) were randomized according to body weight and dosed.” left out
as §3
Animals were weighed daily on Days 1-5, then twice per week until the completion of the study. […] Individual body weight loss was monitored as per protocol and any animal that exceeded the limits for acceptable body weight loss was euthanized. Group mean body weight loss also was monitored as per protocol. Dosing was suspended in any group that exceeded the limits for acceptable mean body weight loss. If mean body weight recovered, then dosing may be resumed in that group, but at a lower dosage or less frequent dosing schedule. […] Survival was analyzed by the Kaplan-Meier method, based on TTE values. The logrank (Mantel-Cox) and Gehan-Breslow-Wilcoxon tests determined the significance of the difference between the overall survival experiences (survival curves) of two groups, based on TTE values.

MCL-1 = assay: Western blot of MCL-1 in AML cell lines; type: cell-based; conditions: MV4-11; 20 μM Z-VAD-FMK for 1 hour before 5-azacytidine for another 16 hours
Procedure: Lysates were quantified using a bicinchoninic acid (BCA) kit (Piece/Thermo Fisher, Waltham, MA). 20 to 30 μg protein was resolved on a 4-12% SDS-PAGE gel, transferred to PVDF membranes (80V/90 minute by wet-transfer), and blocked with Oddysey TBS blocking buffer for 1 hour and then probed with appropriate primary antibodies overnight at 4° C. using dilution as recommended by manufacturer. Membranes were washed three times for a total of 30 minutes and then incubated with secondary antibodies at room temperature in the dark for 1 hour. After another three washes, Odyssey infrared imaging system and companion software (LI-COR biosciences, Lincoln, NE, USA) were used to scan immunoblot membranes and to quantify band intensity according to the manufacturer's instructions. The ratio of proteins of interest to loading control in treated samples was normalized to the corresponding ratio in untreated cells. Antibodies used for immunoblotting were purchased from the following sources: BCL-2 (sc-7382), MCL1- (sc-819) from Santa Cruz Biotechnology (Dallas, TX, USA, Bim (2819), caspase-3 (9664) from Cell Signaling Technology; beta-Actin (A2228) from Sigma-Aldrich; DNMTI (ab188453) from AbCam; TRDye 680 goat anti-rabbit and IRDye 800 goat anti-mouse secondary antibodies (#925-68073 and #925-32212) were purchased from Li-COR Biosciences (Lincoln, NE).

[2] = tested on: CD11b, CD14, and CD86 surface marker expression; assay: Flow cytometry of differentiation markers in AML cell lines; type: cell-based
Procedure: FACS samples were acquired using BD FACSCanto II. Cell viability was also examined by FACS analysis with Fixable Viability dye 780 (Thermofisher Scientific, Waltham, MA) according to the manufacturer's instructions. Briefly, 10^5 cells were seeded in U bottom 96 well plate, next day treated with 9 doses of CC-90011 (started from 10 uM, 3-fold dilution down), cells were incubated at 37° C. for 6 days and harvested for staining. Cells were washed once with DPBS and stained with 1×FVS780 and washed twice with staining buffer. The samples were stained with 1:200 dilution surface antibodies. Results were then analyzed with FlowJo V10 software (TreeStar Inc., Ashland, OR).

22 AML cell lines = assay: Cell viability assay, single agents and 5-azacytidine-venetoclax combination, AML cell line panel; conditions: number of 22 AML cell lines

Compound	EC50 (BaF-FLT3(WT)) [nM]	EC50 (BaF-FLT3-ITD) [nM]	Median survival (MOLM-13 xenograft model) [days]	EC50 (BaF-FLT3(D835Y)) [nM]	Median survival (MV4-11 xenograft models)	also measured
CCc1nc(C(N)=O)c(Nc2ccc(N3CCC(N4CCN(C)CC4)CC3)c(OC)c2)nc1NC1CCOCC1 [Gilteritinib]	4	1.8	34	1.8		
CC1(C)CCC(CN2CCN(c3ccc(C(=O)NS(=O)(=O)c4ccc(NCC5CCOCC5)c([N+](=O)[O-])c4)c(Oc4cnc5[nH]ccc5c4)c3)CC2)=C(c2ccc(Cl)cc2)C1 [Venetoclax]	> 10000	> 10000	29	4330	35.5	EC50 [1]: > 1000 nM
COC(=O)C[C@H](NC(=O)[C@H](C)NC(=O)[C@@H](NC(=O)OCc1ccccc1)C(C)C)C(=O)CF [Z-VAD-FMK] (Cbz-Val-Ala-Asp(OMe)-CH2F)						effect on MCL-1 degradation by 5-azacytidine (MCL-1): partially ablated
CO[C@@H]1[C@H](N(C)C(=O)c2ccccc2)C[C@H]2O[C@]1(C)n1c3ccccc3c3c4c(c5c6ccccc6n2c5c31)C(=O)NC4 [Midostaurin]			34		57	
COc1ccc(-c2c(-c3ccc(C#N)c(F)c3)nc(N3CCC(N)CC3)n(C)c2=O)cc1F [CC-90011, 4-[2-(4-amino-piperidin-1-yl)-5-(3-fluoro-4-methoxy-phenyl)-1-methyl-6-oxo-1,6-dihydro-pyrimidin-4-yl]-2-fluoro-benzonitrile]						change in differentiation markers ([2]; five cell lines: HEL, KG-1, MOLM-13, KG-1a, and NOMO-1): no changes in any of these differentiation markers; cell lines with increased expression of at least one differentiation marker ([2]; number of 22 AML cell lines following CC-90011 treatment): Seventeen; cell lines sensitive to CC-90011 (single agent cytotoxicity) (22 AML cell lines): Eleven
